Experimental data: article PMC8445441, “Elucidating the mechanism by which synthetic helper peptides sensitize Pseudomonas aeruginosa to multiple antibiotics” (PLoS Pathogens, 2021)
Where two headings read alike, the source gives them in different places. One block for each compound: values may come before it.

Experiments:
P. aeruginosa PAK = assay: microbe, parasite or virus in culture; parameters: MICa: MIC of the antibiotic / MICac: MIC of the antibiotic in the combination: unit not given beside the values; settings: strain PAK; for FICI: antibiotic + D-11 (MICb/MICbc 64/4); for MICac: MIC of the antibiotic in the combination: with D-11 at MICbc 4
Description: (§1) The MIC tests were performed in triplicate using broth microdilution in accordance with Clinical and Laboratory Standards Institute (CLSI) recommendations (http://iacld.ir/DL/public/CLSI-2018-M100-S28.pdf). Briefly, drugs were two-fold diluted in MHB and mixed with an equal volume of bacterial suspensions containing approximately 1 × 10^6 CFU/mL in 96-well microliter plate. After 18 h incubation at 37 °C, the MIC values were defined as the lowest concentrations of antibiotics with no visible growth of bacteria. […] Otherwise, 1/4 MIC of the peptide was used in the combination. […] If needed, membrane compounds PG, PE, PC, CL or LPS, or membrane stabilizers MgCl2 or CaCl2, or efflux pumps inhibitor PAβN were added to the broth medium to clarify the effect of other substances on the synergy between peptide and antibiotics. All the tests were performed in triplicate.
(§2) The fractional inhibitory concentration (FIC) indices were calculated using the previously described formula FICI = FICa + FICb = MICac/MICa + MICbc/MICb. The FICI was interpreted according to EUCAST [65] as follows: synergistic, FICI≤0.5; additive, 0.5<FICI≤1; indifferent, 1<FICI<2; antagonistic, FICI ≥2. For the FICI calculations, twice the highest concentration tested was used in the cases where the MIC was not reached.

P. aeruginosa NR-31040 = assay: microbe, parasite or virus in culture; parameters: MICa: MIC of the antibiotic / MICac: MIC of the antibiotic in the combination: unit not given beside the values; settings: strain NR-31040; for MICac: MIC of the antibiotic in the combination: with D-11 at MICbc 4
Description: as §1, §2

P. aeruginosa PA14 = assay: microbe, parasite or virus in culture; parameters: MICa: MIC of the antibiotic / MICac: MIC of the antibiotic in the combination: unit not given beside the values; settings: strain PA14; for MICac: MIC of the antibiotic in the combination: with D-11 at MICbc 4
Description: as §1, §2

P. aeruginosa ATCC27853 = assay: microbe, parasite or virus in culture; parameters: MICa: MIC of the antibiotic / MICac: MIC of the antibiotic in the combination: unit not given beside the values; settings: strain ATCC27853; for FICI: antibiotic + D-11 (MICb/MICbc 32/4); for MICac: MIC of the antibiotic in the combination: with D-11 at MICbc 4
Description: as §1, §2

P. aeruginosa NR-31041 = assay: microbe, parasite or virus in culture; parameters: MICa: MIC of the antibiotic / MICac: MIC of the antibiotic in the combination: unit not given beside the values; settings: strain NR-31041; for FICI: antibiotic + D-11 (MICb/MICbc 64/4); for MICac: MIC of the antibiotic in the combination: with D-11 at MICbc 4
Description: as §1, §2

P. aeruginosa HM-214 = settings: strain HM-214; antibiotic + D-11 (MICb/MICbc 128/4)
Description: as §1, §2

P. aeruginosa AUMC-Pa-2 = settings: strain AUMC-Pa-2; antibiotic + D-11 (MICb/MICbc 64/4)
Description: as §1, §2

P. aeruginosa AUMC-Pa-1 = settings: strain AUMC-Pa-1; antibiotic + D-11 (MICb/MICbc 128/4)
Description: as §1, §2

P. aeruginosa AUMC-Pa-5 = assay: microbe, parasite or virus in culture; settings: strain AUMC-Pa-5; for FICI: antibiotic + D-11 (MICb/MICbc 64/4); for MICac: MIC of the antibiotic in the combination: with D-11 at MICbc 4
Description: as §1, §2

P. aeruginosa AUMC-Pa-6 = assay: microbe, parasite or virus in culture; settings: strain AUMC-Pa-6; for FICI: antibiotic + D-11 (MICb/MICbc 64/4); for MICac: MIC of the antibiotic in the combination: with D-11 at MICbc 4
Description: as §1, §2

P. aeruginosa AUMC-Pa-3 = assay: microbe, parasite or virus in culture; settings: strain AUMC-Pa-3; for MICac: MIC of the antibiotic in the combination: with D-11 at MICbc 4
Description: as §1, §2

P. aeruginosa PAO1 = assay: microbe, parasite or virus in culture; settings: PAO1; for FICI / MICac: the MIC for the antibiotic in the combination: S3 Table
Description: as §1, §2

P. aeruginosa AUMC-Pa-4 = assay: microbe, parasite or virus in culture; settings: strain AUMC-Pa-4; for MICac: MIC of the antibiotic in the combination: with D-11 at MICbc 4
Description: as §1, §2

[1] = test system: clinical P. aeruginosa isolates; assay: microbe, parasite or virus in culture; settings: Pseudomonas aeruginosa, 18 h, antibiotic alone
Description: The bacterial strains, primers and plasmids used in this study are listed in S5 Table. […] Bacteria were cultured in LB medium or cation-adjusted Muller-Hinton broth (CA-MHB) at 37 °C with agitation at 220 rpm. All the antibiotics and chemical compounds used in this study were purchased from Sigma-Aldrich.
as §1

[2] = antibiotic alone, unit not given
[3] = antibiotic + D-11 (MICb/MICbc 128/4)

MICa: MIC of the antibiotic (P. aeruginosa PAK; [2]): 8
MICac: MIC of the antibiotic in the combination (P. aeruginosa PAK; unit not given): 4
MICa: MIC of the antibiotic (P. aeruginosa NR-31040; [2]): 4
MICac: MIC of the antibiotic in the combination (P. aeruginosa NR-31040; unit not given): 1
MICa: MIC of the antibiotic (P. aeruginosa PA14; [2]): 16
MICac: MIC of the antibiotic in the combination (P. aeruginosa PA14; unit not given): 8
MICa: MIC of the antibiotic (P. aeruginosa ATCC27853; [2]): 8
MICac: MIC of the antibiotic in the combination (P. aeruginosa ATCC27853; unit not given): 4
MICa: MIC of the antibiotic (P. aeruginosa NR-31041; [2]): 64
MICac: MIC of the antibiotic in the combination (P. aeruginosa NR-31041; unit not given): 8
MICa: MIC of the antibiotic (P. aeruginosa AUMC-Pa-5; [2]): 16
MICac: MIC of the antibiotic in the combination (P. aeruginosa AUMC-Pa-5; unit not given): 8
MICa: MIC of the antibiotic (P. aeruginosa AUMC-Pa-6; [2]): 16
MICac: MIC of the antibiotic in the combination (P. aeruginosa AUMC-Pa-6; unit not given): 8
MICa: MIC of the antibiotic (P. aeruginosa AUMC-Pa-3; [2]): 16
MICac: MIC of the antibiotic in the combination (P. aeruginosa AUMC-Pa-3; unit not given): 1
MIC (P. aeruginosa PAO1; Pseudomonas aeruginosa, PAO1, 18 h, read-out: MICa: the MIC of antibiotics, S3 Table, antibiotic alone): 8 µM
MICac: the MIC for the antibiotic in the combination (P. aeruginosa PAO1; with 2 μM D-11): 1 µM
MICac: the MIC for the antibiotic in the combination (P. aeruginosa PAO1; with 4 μM D-11): 0.25 µM
MICa: MIC of the antibiotic (P. aeruginosa AUMC-Pa-4; [2]): 32
MICac: MIC of the antibiotic in the combination (P. aeruginosa AUMC-Pa-4; unit not given): 4
MIC ([1]; read-out: Antibiotic sensibility (MIC) of clinical P. aeruginosa isolate AUMC-Pa-1, strain AUMC-Pa-1): 32 µM
MIC ([1]; read-out: Antibiotic sensibility (MIC) of clinical P. aeruginosa isolate AUMC-Pa-2, strain AUMC-Pa-2): 4 µM
MIC ([1]; read-out: Antibiotic sensibility (MIC) of clinical P. aeruginosa isolate AUMC-Pa-3, strain AUMC-Pa-3): 16 µM
MIC ([1]; read-out: Antibiotic sensibility (MIC) of clinical P. aeruginosa isolate AUMC-Pa-4, strain AUMC-Pa-4): 32 µM
MIC ([1]; read-out: Antibiotic sensibility (MIC) of clinical P. aeruginosa isolate AUMC-Pa-5, strain AUMC-Pa-5): 16 µM
MIC ([1]; read-out: Antibiotic sensibility (MIC) of clinical P. aeruginosa isolate AUMC-Pa-6, strain AUMC-Pa-6): 16 µM
MIC ([1]; read-out: Antibiotic sensibility (MIC) of clinical P. aeruginosa isolate HM-214, strain HM-214): 16 µM
MIC ([1]; read-out: Antibiotic sensibility (MIC) of clinical P. aeruginosa isolate NR-31040, strain NR-31040): 4 µM
MIC ([1]; read-out: Antibiotic sensibility (MIC) of clinical P. aeruginosa isolate NR-31041, strain NR-31041): 64 µM
SMILES: C[C@H]1[C@H](NC(=O)/C(=N\OC(C)(C)C(=O)O)c2csc(N)n2)C(=O)N1S(=O)(=O)O [Aztreonam]
FICI (P. aeruginosa PAK): 0.563
FICI (P. aeruginosa NR-31040; [3]): 0.281
FICI (P. aeruginosa PA14; [3]): 0.531
FICI (P. aeruginosa ATCC27853): 0.625
FICI (P. aeruginosa NR-31041): 0.188
FICI (P. aeruginosa HM-214): 0.531
FICI (P. aeruginosa AUMC-Pa-2): 1.063
FICI (P. aeruginosa AUMC-Pa-1): 0.094
FICI (P. aeruginosa AUMC-Pa-5): 0.563
FICI (P. aeruginosa AUMC-Pa-6): 0.563
FICI (P. aeruginosa AUMC-Pa-3; [3]): 0.094
FICI (P. aeruginosa PAO1; antibiotic + 2 μM D-11): 0.188
FICI (P. aeruginosa PAO1; antibiotic + 4 μM D-11): 0.156
FICI (P. aeruginosa AUMC-Pa-4; [3]): 0.156

MICac: MIC of the antibiotic in the combination (P. aeruginosa PAK; unit not given): 16
MICac: MIC of the antibiotic in the combination (P. aeruginosa NR-31040; unit not given): 32
MICac: MIC of the antibiotic in the combination (P. aeruginosa PA14; unit not given): 32
MICac: MIC of the antibiotic in the combination (P. aeruginosa ATCC27853; unit not given): 8
MICac: MIC of the antibiotic in the combination (P. aeruginosa NR-31041; unit not given): 16
MICac: MIC of the antibiotic in the combination (P. aeruginosa AUMC-Pa-5; unit not given): 32
MICac: MIC of the antibiotic in the combination (P. aeruginosa AUMC-Pa-6; unit not given): 32
MICac: MIC of the antibiotic in the combination (P. aeruginosa AUMC-Pa-3; unit not given): 8
MICac: MIC of the antibiotic in the combination (P. aeruginosa AUMC-Pa-4; unit not given): 32
SMILES: CC[C@H]1OC(=O)[C@H](C)[C@@H](O[C@H]2C[C@@](C)(OC)[C@@H](O)[C@H](C)O2)[C@H](C)[C@@H](O[C@@H]2O[C@H](C)C[C@H](N(C)C)[C@H]2O)[C@](C)(O)C[C@@H](C)C(=O)[C@H](C)[C@@H](O)[C@]1(C)O [Erythromycin]
FICI (P. aeruginosa PAK): 0.188
FICI (P. aeruginosa ATCC27853): 0.188
FICI (P. aeruginosa NR-31041): 0.188
FICI (P. aeruginosa AUMC-Pa-2): 0.313
FICI (P. aeruginosa AUMC-Pa-5): 0.313
FICI (P. aeruginosa AUMC-Pa-6): 0.313
